Assay results as given in ChEMBL document CHEMBL1155325, “Design and synthesis of (2R,3S)-iodoreboxetine analogues for SPECT imaging of the noradrenaline transporter” (Bioorg Med Chem Lett, 2009).

These compounds were tested against Transporter (Rattus norvegicus, UniProt Q63380) (assay: Displacement of [3H]nisoxetine from NAT in Sprague-Dawley rat brain after 4 hrs by liquid scintillation analysis).
Assay type: tissue-based

Sequence of Transporter (Q63380 whole entry): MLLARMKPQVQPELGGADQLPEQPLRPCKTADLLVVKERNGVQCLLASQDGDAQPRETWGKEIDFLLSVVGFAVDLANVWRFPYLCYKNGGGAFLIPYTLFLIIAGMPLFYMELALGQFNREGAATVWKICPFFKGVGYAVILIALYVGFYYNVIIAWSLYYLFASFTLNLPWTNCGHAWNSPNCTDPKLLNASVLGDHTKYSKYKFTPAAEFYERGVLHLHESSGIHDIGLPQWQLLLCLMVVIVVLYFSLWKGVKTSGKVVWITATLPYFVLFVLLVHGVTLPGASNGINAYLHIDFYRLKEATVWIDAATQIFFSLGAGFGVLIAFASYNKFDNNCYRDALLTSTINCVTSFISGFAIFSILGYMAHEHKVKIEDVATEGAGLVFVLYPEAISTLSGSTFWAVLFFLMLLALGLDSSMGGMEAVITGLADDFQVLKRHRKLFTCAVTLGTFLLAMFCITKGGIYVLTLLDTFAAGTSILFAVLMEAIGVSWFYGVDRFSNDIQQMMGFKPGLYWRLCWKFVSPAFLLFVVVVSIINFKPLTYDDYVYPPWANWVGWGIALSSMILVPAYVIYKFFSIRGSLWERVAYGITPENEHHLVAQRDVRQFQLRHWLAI

| Ki [nM] | SMILES |
| --- | --- |
| 0.84 | Ic1ccccc1O[C@@H](c1ccccc1)[C@@H]1CNCCO1 |
| 58.2 | CCOc1ccccc1O[C@@H](c1ccc(I)cc1)[C@H]1CNCCO1 |
| 53.8 | CCOc1ccccc1O[C@@H](c1ccc(I)cc1)[C@@H]1CNCCO1 |
| 8.4 | Ic1ccccc1O[C@@H](c1ccccc1)[C@H]1CNCCO1 |
| 1700 | Ic1cccc(O[C@@H](c2ccccc2)[C@H]2CNCCO2)c1 |
| 1100 | Ic1ccc(O[C@@H](c2ccccc2)[C@H]2CNCCO2)cc1 |

Each compound was assayed against Sodium-dependent serotonin transporter (Rattus norvegicus, UniProt P31652) (assay: Displacement of [3H]citalopram from SERT in Sprague-Dawley rat brain after 2 hrs by liquid scintillation analysis).
Sequence of Sodium-dependent serotonin transporter (P31652 whole entry): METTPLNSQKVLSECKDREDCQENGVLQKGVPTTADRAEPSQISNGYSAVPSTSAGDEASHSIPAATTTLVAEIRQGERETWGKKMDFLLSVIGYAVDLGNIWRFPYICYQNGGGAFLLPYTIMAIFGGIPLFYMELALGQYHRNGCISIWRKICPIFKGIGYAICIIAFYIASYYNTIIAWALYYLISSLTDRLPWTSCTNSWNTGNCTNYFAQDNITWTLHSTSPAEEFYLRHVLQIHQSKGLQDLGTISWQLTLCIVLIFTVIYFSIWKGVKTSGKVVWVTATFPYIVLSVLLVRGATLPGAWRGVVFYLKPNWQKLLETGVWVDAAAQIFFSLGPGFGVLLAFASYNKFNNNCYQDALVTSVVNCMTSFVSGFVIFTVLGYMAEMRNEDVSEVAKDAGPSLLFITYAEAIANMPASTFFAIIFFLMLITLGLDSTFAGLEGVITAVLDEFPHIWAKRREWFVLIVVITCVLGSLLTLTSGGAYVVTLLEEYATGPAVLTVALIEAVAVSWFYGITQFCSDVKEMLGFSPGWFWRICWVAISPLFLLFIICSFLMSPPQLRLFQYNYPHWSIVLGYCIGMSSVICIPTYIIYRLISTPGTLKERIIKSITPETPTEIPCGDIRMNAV
Assay type: tissue-based

| Ki [nM] | SMILES |
| --- | --- |
| 51.5 | Ic1ccccc1O[C@@H](c1ccccc1)[C@H]1CNCCO1 |
| 154 | Ic1cccc(O[C@@H](c2ccccc2)[C@H]2CNCCO2)c1 |
| 34.5 | Ic1ccc(O[C@@H](c2ccccc2)[C@H]2CNCCO2)cc1 |

What follows are compounds tested against Sodium-dependent dopamine transporter (Rattus norvegicus, UniProt P23977) (assay: Displacement of [3H]WIN-35428 from DAT in Sprague-Dawley rat brain after 2 hrs by liquid scintillation analysis).
Sequence of Sodium-dependent dopamine transporter (P23977 whole entry): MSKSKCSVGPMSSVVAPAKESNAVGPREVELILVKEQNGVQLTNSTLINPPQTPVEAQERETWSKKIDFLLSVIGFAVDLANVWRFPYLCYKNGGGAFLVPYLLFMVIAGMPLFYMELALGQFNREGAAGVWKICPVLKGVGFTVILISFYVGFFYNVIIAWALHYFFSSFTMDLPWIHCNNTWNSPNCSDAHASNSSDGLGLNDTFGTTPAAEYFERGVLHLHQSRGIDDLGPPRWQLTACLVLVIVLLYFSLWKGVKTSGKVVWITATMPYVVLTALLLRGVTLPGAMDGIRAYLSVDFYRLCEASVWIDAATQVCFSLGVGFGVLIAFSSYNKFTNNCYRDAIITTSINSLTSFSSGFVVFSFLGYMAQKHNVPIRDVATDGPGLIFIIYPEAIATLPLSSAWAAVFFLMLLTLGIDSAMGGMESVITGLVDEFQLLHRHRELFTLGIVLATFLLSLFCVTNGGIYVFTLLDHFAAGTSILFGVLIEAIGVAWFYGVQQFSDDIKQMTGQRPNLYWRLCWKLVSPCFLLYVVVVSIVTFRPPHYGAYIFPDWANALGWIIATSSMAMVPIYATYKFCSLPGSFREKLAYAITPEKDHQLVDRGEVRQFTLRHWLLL
Assay type: tissue-based

| Ki [nM] | SMILES |
| --- | --- |
| 526 | Ic1ccccc1O[C@@H](c1ccccc1)[C@H]1CNCCO1 |
| 1900 | Ic1cccc(O[C@@H](c2ccccc2)[C@H]2CNCCO2)c1 |
| 2100 | Ic1ccc(O[C@@H](c2ccccc2)[C@H]2CNCCO2)cc1 |
